In patent US20040005997A1, “Methods for identifying compounds for regulating muscle mass of function using amylin receptors” (The Procter & Gamble Company, priority 2002, published 2004):

How the values were obtained:
[1] = system: mouse glucocorticoid-induced atrophy model; assay: mouse glucocorticoid-induced atrophy model; assay type: in vivo
Experimental: Legend: A—water only with no dexamethasone included in drinking water (non-atrophied control); B—water+dexamethasone (atrophied control); C—amylin (0.3 mg/kg/d)+theophylline+dexamethasone; D—amylin (1.0 mg/kg/d)+theophylline+dexamethasone; *—p≦0.05 compared to water; #—p≦0.05 compared to water+dexamethasone. Following the addition of the glucocorticoid, dexamethasone, to the drinking water (1.2 mg/kg/d), male mice were injected subcutaneously in the midscapular region twice daily with amylin, at the doses indicated above or vehicle control (physiological saline) for nine days. Amylin was co-administered with twice daily intra-peritoneal dosing of the phosphodiesterase inhibitor theophylline (30 mg/kg). Nine days following the initiation of dosing amylin, the medial gastrocnemius and tibialis anterior muscles were removed and weighed to determine the degree of atrophy.
The glucocorticoid-induced atrophy model involves the administration of a glucocorticoid to the test animal, e.g., 1.2 mg/kg/day of dexamethasone in the drinking water. Typically, in untreated animals, skeletal muscle mass is reduced 30-50% following ten days of dexamethasone administration. Concomitantly with, or following glucocorticoid administration, test compounds are administered e.g., by injection or by continuous infusion to determine their effect on glucocorticoid-induced skeletal muscle atrophy. At various times following glucocorticoid administration, the extent of atrophy in the affected muscles is analyzed as described above for the denervation model.

[2] = system: mouse sciatic nerve denervation atrophy model; assay: mouse sciatic nerve denervation atrophy model; assay type: in vivo
Experimental: Legend: A—non-denervated medial gastrocnemius muscle from mice treated with physiological saline (non-atrophied control); B—denervated medial gastrocnemius muscle from mice treated with physiological saline (atrophied control); C—amylin (0.03 mg/kg)+theophylline; D—amylin (0.1 mg/kg)+theophylline; E—amylin (0.3 mg/kg)+theophylline. * —p≦0.05 compared to saline. Following denervation of the right sciatic nerve, male mice were injected subcutaneously in the midscapular region twice daily with amylin, at the doses indicated above or vehicle control (physiological saline) for nine days. […] On day nine, the medial gastrocnemius muscle was removed and weighed to determine the degree of atrophy.
The sciatic nerve denervation atrophy model involves anesthetizing the animal followed by the surgical removal of a short segment of either the right or left sciatic nerve, e.g., in mice the sciatic nerve is isolated approximately at the midpoint along the femur and a 3-5 mm segment is removed. This denervates the lower hind limb musculature resulting in atrophy of these muscles. Typically, innervation to the biceps femoris is left intact to provide satisfactory motion of the knee for virtually normal ambulation. […] The extent of atrophy in the affected muscles is analyzed, for example, by measuring muscle mass, muscle cross-sectional area, myofiber cross-sectional area or contractile protein content.

[3] = system: leg casting disuse atrophy model; assay: leg casting disuse atrophy model; assay type: in vivo, mouse
Experimental: Legend: A—physiological saline (control); B—amylin (0.1 mg/kg)+theophylline; C—amylin (0.3 mg/kg)+theophylline; D—amylin (1.0 mg/kg)+theophylline; *—p≦0.05 compared to saline. Following casting of the right hind leg, male mice were injected subcutaneously in the midscapular region twice daily, with amylin or vehicle control (physiological saline) for ten days at the daily delivered dose indicated. Amylin was co-administered with twice daily intra-peritoneal dosing of the phosphodiesterase inhibitor theophylline (30 mg/kg). On day ten, the medial gastrocnemius and tibialis anterior muscles were removed and weighed to determine the degree of atrophy.
The leg casting disuse atrophy model involves casting one hind leg of an animal from the knee down through the foot. Typically, muscle mass is reduced 20-40% after ten days of casting. Following casting, test compounds are administered by injection or by continuous infusion via implantation of an osmotic minipump (e.g., Alzet, Palo Alto, Calif.) to determine their effect on leg casting induced skeletal muscle atrophy. At various times following leg casting, the extent of atrophy in the affected muscles is analyzed as described above for the denervation model.

[4] = system: human subject in a comatose state; assay: prophylactic treatment of skeletal muscle atrophy in comatose state (Example 13); assay type: in vivo; conditions: human 60 kg, 5 ml of 12 mg/ml amylin stock in 500 ml saline, slow i.v. infusion once each day
Experimental: A human subject weighing 60 kg is admitted to the hospital in a comatose state. The subject is treated by this method to prevent atrophy of the skeletal muscle of the entire body due to disuse in the comatose state. Specifically, once each day while in the coma, the subject is administered, via slow intravenous infusion, approximately 500 ml of an aqueous solution that is prepared by addition of 5 ml of the following stock solution to 500 ml of sterile saline: […]

| Compound | effect on skeletal muscle atrophy, theophylline administered alone ([1]; glucocorticoid-induced model, theophylline alone) | effect on skeletal muscle atrophy, theophylline administered alone ([2]; denervation model, theophylline alone) | effect on skeletal muscle atrophy, theophylline administered alone ([3]; casting disuse model, theophylline alone) | glucocorticoid-induced atrophy of the tibialis anterior muscle (muscle weight) ([1]; male mice, dexamethasone 1.2 mg/kg/d in drinking water, amylin 0.3, 1.0 mg/kg/d s.c. twice daily + theophylline 30 mg/kg i.p., nine days, FIG. 2A) | glucocorticoid-induced atrophy of the medial gastrocnemius muscle (muscle weight) ([1]; male mice, dexamethasone 1.2 mg/kg/d in drinking water, amylin 0.3, 1.0 mg/kg/d s.c. twice daily + theophylline 30 mg/kg i.p., nine days, FIG. 2B) | skeletal muscle mass and function [4] | denervation-induced atrophy of the medial gastrocnemius muscle (muscle weight) ([2]; male mice, amylin 0.03, 0.1, 0.3 mg/kg s.c. twice daily + theophylline 30 mg/kg i.p. twice daily, nine days, FIG. 1) | disuse-induced (casting) atrophy of the tibialis anterior muscle (muscle weight) ([3]; male mice, casted right hind leg, amylin 0.1, 0.3, 1.0 mg/kg s.c. twice daily + theophylline 30 mg/kg i.p., ten days, FIG. 3A) | disuse-induced (casting) atrophy of the medial gastrocnemius muscle (muscle weight) ([3]; male mice, casted right hind leg, amylin 0.1, 0.3, 1.0 mg/kg s.c. twice daily + theophylline 30 mg/kg i.p., ten days, FIG. 3B) | hypertrophy of the tibialis anterior muscle of the non-casted leg ([3]; male mice, non-casted (normal) leg, amylin 0.1, 0.3, 1.0 mg/kg s.c. twice daily + theophylline 30 mg/kg i.p., ten days, FIG. 3A) | hypertrophy of the medial gastrocnemius muscle of the non-casted leg ([3]; male mice, non-casted (normal) leg, amylin 0.1, 0.3, 1.0 mg/kg s.c. twice daily + theophylline 30 mg/kg i.p., ten days, FIG. 3B) |
| --- | --- | --- | --- | --- | --- | --- | --- | --- | --- | --- | --- |
| Cn1c(=O)c2[nH]cnc2n(C)c1=O [Theophylline, theophylline] | no effect | no effect | no effect |  |  |  |  |  |  |  |  |
| amylin (KCNTATCATQRLANFLVHSSNNFGAILSSTNVGSNTY; Islet amyloid polypeptide; UniProt P10997 34-70, looked up) [a 37 amino acid peptide; the ligand/agonist of the amylin receptors] |  |  |  | inhibits glucocorticoid-induced muscle atrophy | inhibits glucocorticoid-induced muscle atrophy | measurable preservation of skeletal muscle mass and function | inhibits denervation-induced atrophy | inhibits disuse-induced atrophy | inhibits disuse-induced atrophy | statistically significant hypertrophy | statistically significant hypertrophy |
